{
  "source": "patent US10766857B2",
  "about": "“Compound having BLT inhibitory activity and composition, for preventing or treating inflammatory diseases, comprising same as active ingredient” (DONGGUK UNIVERSITY INDUSTRY-ACADEMIC COOPERATION FOUNDATION, priority 2015, dated 2020)",
  "key": {"BLT1": {"target": "T1, BLT1 (Homo sapiens, UniProt Q15722)", "T1 construct": "expressed in transfected cells; host or cells: CHO cells stably expressing BLT1 (CHO-BLT1)", "T1 sequence (Q15722 whole entry, species assumed)": "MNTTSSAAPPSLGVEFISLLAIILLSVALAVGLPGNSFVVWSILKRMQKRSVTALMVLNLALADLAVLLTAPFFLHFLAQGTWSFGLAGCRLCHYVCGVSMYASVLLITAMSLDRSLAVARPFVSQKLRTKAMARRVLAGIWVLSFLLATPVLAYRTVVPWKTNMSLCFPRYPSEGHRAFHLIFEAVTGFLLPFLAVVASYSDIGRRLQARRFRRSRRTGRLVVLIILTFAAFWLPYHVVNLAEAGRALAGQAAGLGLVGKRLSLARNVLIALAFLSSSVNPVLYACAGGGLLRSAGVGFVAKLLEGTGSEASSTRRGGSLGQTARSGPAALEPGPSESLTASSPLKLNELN", "experiment": "LTB4-induced chemotactic motility, Transwell, CHO-BLT1 cells", "assay_type": "cell-based", "conditions": "10 μM pre-treatment, LTB4 10 nM", "method": "Chemotactic motility was analyzed using a Transwell chamber including a polycarbonate filter (8-μm pore size, Corning Costar) with a 6.5-mm diameter. Specifically, the lower surface of the filter was coated with 10 μg/mL fibronectin in a serum-free RPMI 1640 medium at 37° C. for 1 hour. The experiment was performed by placing the filter dried and coated with RPMI 1640 media containing various amounts of LTB4 in the lower wells of the Transwell chamber, and loading CHO cells stably expressing BLT1 and BLT2 into the upper wells containing serum-free RPMI 1640 media finally at 2×10^4 cells/100 μL. To evaluate the effect of inhibitors, the cells were pre-treated with each inhibitor for 30 minutes before dispensing. After the cells were cultured at 37° C. in 5% CO2 for 3 hours, the filters were fixed with methanol for 3 minutes, and stained with hematoxylin and eosin for 10 minutes. In the experiment, the cells were BLT2-expressing cells (CHO-BLT2 cells) and BLT1-expressing cells (CHO-BLT1 cells), and LY255283 and U75302 were used as positive controls for each type of the cells, and BLT2 ligand LTB4, (300 nM), BLT1 ligand LTB4 (10 nM), and lysophosphatidic acid (LPA; 100 nM) were used as comparative controls. The chemotactic motility was quantitatively analyzed by counting the cells on the lower side of the filter under an optical microscope (magnification, 200×). For each analysis, 6 fields were subjected to counting, each sample was analyzed twice, and the analysis was repeated three times."}, "[1]": {"test_system": "cancer cells (MDA-MB-231)", "experiment": "Metastasis of breast cancer cells in nude mice", "assay_type": "in vivo", "conditions": "MDA-MB-231 in nude mice, i.p.; LMT-696 and LY255283 2.5 mg/kg, U75302 0.25 mg/kg; 15 weeks", "method": "An experiment for the metastasis of breast cancer cells according to the treatment of the compound of the present invention was approved by the Ethics Committee of Korea University, and all experimental animals used in this experiment were treated according to the approved guidelines of the Korea University Animal Care and Use Committee. Six-week-old female nude mice (Charles River, Wilmington, Mass.) were injected with cancer cells to confirm cancer cell metastasis. The breast cancer cells were pre-treated with the compound of the present invention (LMT-696, 10 μM), LY255283, U75302 and DMSO, and 24 hours later, harvested with trypsin-EDTA, resuspended in PBS, and then 2×10^6 of the breast cancer cells were intraperitoneally injected into mice anesthetized with zoletil (50 mg/kg). After five days, the compound of the present invention (LMT-696; 2.5 mg/kg), LY255283 (2.5 mg/kg), U75302 (0.25 mg/kg) and DMSO were injected intraperitoneally three times every five days. At 15 weeks after the injection of the breast cancer cells, the mice were dissected to observe the cancer cell metastasis."}, "[2]": {"target": "T2, BLT2-expressing cells (CHO-BLT2 cells) (Homo sapiens, UniProt Q9NPC1)", "T2 construct": "HA; expressed in transfected cells", "T2 sequence (Q9NPC1 with tags, fused parts or gaps)": "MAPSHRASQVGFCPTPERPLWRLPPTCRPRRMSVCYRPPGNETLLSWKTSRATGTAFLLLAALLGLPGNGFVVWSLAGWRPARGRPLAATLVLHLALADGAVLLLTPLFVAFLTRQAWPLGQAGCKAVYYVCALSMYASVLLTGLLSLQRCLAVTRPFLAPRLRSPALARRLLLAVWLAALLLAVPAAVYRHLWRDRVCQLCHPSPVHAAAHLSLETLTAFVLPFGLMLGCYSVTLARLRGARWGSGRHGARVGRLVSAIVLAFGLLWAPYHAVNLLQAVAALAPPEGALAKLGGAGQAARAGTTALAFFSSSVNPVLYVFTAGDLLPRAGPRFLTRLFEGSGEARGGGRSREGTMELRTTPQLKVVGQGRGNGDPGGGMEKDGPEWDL", "experiment": "MTT cell growth of LTB4-stimulated BLT2-expressing cells", "assay_type": "cell-based", "conditions": "pre-treated at 10 μM, LTB4 300 nM", "method": "Cell viability according to treatment of the compounds prepared in the examples were measured by a 3-(4,5-dimethylthiazol-2-yl)-2,5-diphenyltetrazolium bromide (MTT) method.\nMore specifically, 1×10^4 each of the BLT2-nonexpressing cells (CHO-pcDNA3.1 cells) and BLT2-expressing cells (CHO-BLT2 cells), which were prepared in Experimental Example 1, were dispensed in a […], and cultured for 24 hours. Afterward, the culture medium was removed, a serum-free RPMI medium was added, and after two hours, the cells were pre-treated with each of the compound prepared in one of the examples (10 μM), 10 μM DMSO (compound solvent) as a control, and 10 μM 1-[5-ethyl-2-hydroxy-4-[[6-methyl-6-(1H-tetrazol-5-yl)heptyl]oxy]phenyl]-ethanone (LY255283; Cayman) as a positive control for 1 hour. Subsequently, after treatment of LTB4 (300 nM), the cells were cultured for 24 hours. 20 μL of an MTT solution (5 mg/mL, Sigma-Aldrich) was added to each well, the cells were cultured in a humid CO2 incubator at 37° C. for 4 hours, a supernatant was removed, and 200 μL of DMSO was added to each well to dissolve insoluble violet formazan crystals. Absorbance was measured using a microplate reader (Molecular Devices, Sunnyvale, Calif.) at 550 nm, and the measurement was repeated three times."}, "MDA-MB-231 cells": {"test_system": "MDA-MB-231 cells", "experiment": "Intracellular ROS generation (DCF fluorescence)", "assay_type": "cell-based", "conditions": "30 minutes treatment", "method": "(§1) The breast cancer cells such as the MDA-MB-231 cells were obtained from Korean Cell Line Bank (Seoul, Korea), and the MDA-MB-435 cells were provided by J. H. Lee (Asan Medical Center, Seoul, Korea). These cells were cultured in an RPMI 1640 medium (Invitrogen) containing 10% FBS (Life Technologies, Inc.), 1% penicillin (50 units/mL), and an antibiotic antimycotic solution (Life Technologies, Inc.) at 37° C. under a 5% CO2 condition.\n(§2) Intracellular ROS (H2O2) generated according to the treatment of the compound of the present invention (LMT-696) was measured as a function of DCF fluorescence. Specifically, before ROS measurement, 2×10^5 cells were grown in 60-mm wells, and cultured in a FBS-supplemented RPMI 1640 medium for 24 hours. To evaluate the effect of the compound of the present invention, the cells were treated with the compound (LMT-696) for 30 minutes. To measure the intracellular ROS, the cells were cultured with 20 μM of a H2O2-sensitive fluorescent material such as H2DCFDA [Molecular Probes (Eugene, Oreg.)] at 37° C. in a dark and humidified CO2 incubator for 20 minutes. […] A DCF fluorescent degree was measured with excitation and emission wavelengths at 488 and 530 nm, respectively, using a FACS Calibur flow cytometer (Becton Dickinson, N.J.)."}, "MDA-MB-435 cells": {"test_system": "MDA-MB-435 cells", "experiment": "Intracellular ROS generation (DCF fluorescence)", "assay_type": "cell-based", "conditions": "30 minutes treatment", "method": "as §1, §2"}, "BLT2": {"target": "T3, BLT2 (Homo sapiens, UniProt Q9NPC1)", "T3 construct": "HA; expressed in transfected cells", "T3 sequence (Q9NPC1 with tags, fused parts or gaps)": "T2 sequence (Q9NPC1 with tags, fused parts or gaps)", "experiment": "[3H]LTB4 and BLT2 binding inhibition, CHO-BLT2 cell membrane proteins", "conditions": "[3H]LTB4 5 nM", "experimental": "The inhibition of LTB4 and BLT2 binding (ligand binding affinity) was analyzed using radioactive tritium (^3H)-labeled LTB4 ([^3H]LTB4, ARC; specific activity 160.0 Ci/mmol). After 2×10^6 of CHO-BLT2 cells were plated into a 100-mm culture dish and cultured for 48 hours, an experimental method was carried out as follows: Collected cells were treated using a homogenizer a total of five times for 1 minute each to separate proteins of the cell membrane. Afterward, the cells were subjected to centrifugation at 4° C. and 45,000 rpm for 40 minutes to only collect the proteins of the cell membrane, and thereby, a protein concentration of 40 μg/45 μL was quantified. When a BLT2-containing cell membrane proteins which were quantified in the same manner was treated with the same amount of [^3H]LTB4 (5 nM), and then a different concentration (10^−9, 10^−8, 10^−7, 10^−6 or 10^−5 M) of a compound, a degree of inhibiting the tritium-labeled LTB4 and BLT2 binding was measured using a Hidex 300sL liquid scintillation counter."}},
  "data": [
    {"smiles": "CCCCC(=O)N(CC#Cc1ccc(C(=O)N2CCN(C(C)C)CC2)cc1)c1ccccc1", "note": "[LMT-696, N-(3-(4-(4-isopropylpiperazine-1-carbonyl)phenyl)prop-2-ynyl)-N-phenylpentaneamide]", "values": [
      {"measurement": "inhibitory effect on chemotactic motility", "setting": "BLT1", "value": "did not exhibit the inhibitory effect"},
      {"measurement": "metastasis of the cancer cells inhibited as compared with the control", "setting": "[1]", "value": 40, "unit": "%"},
      {"measurement": "cell growth compared with the control DMSO", "setting": "[2]", "value": 56.6, "unit": "%"},
      {"measurement": "inhibition of ROS generation", "setting": "MDA-MB-231 cells", "value": "significant inhibition"},
      {"measurement": "inhibition of ROS generation", "setting": "MDA-MB-435 cells", "value": "significant inhibition"},
      {"measurement": "IC50", "setting": "BLT2", "value": 5.6, "unit": "nM"}
    ]}
  ]
}
